# Results taken from PMC2891831, “Insight into the Mechanisms of Adenovirus Capsid Disassembly from Studies of Defensin Neutralization” (PLoS Pathogens, 2010).
# Experiments:
# [1] = system: Serotypes sensitive to HD5; assay: Infection assay (hexon staining), serotypes sensitive to HD5; type: cell-based, human adenovirus; conditions: 15 µM HNP1, A549 cells, vs. no defensin
# Protocol: (§1) To determine whether sensitivity to α-defensins is a general property of HAdVs, serotypes representative of HAdV species A–F were tested for infectivity in the presence of 15 µM HD5 or HNP1 (Figure 1). Wild type HAdVs rather than vectors were used for these studies, and infectivity was assessed by staining for hexon production. […] These studies indicate that sensitivity to α-defensins is species specific. In addition, particular HAdV serotypes are not equally sensitive to all defensins, indicating defensin sequence specificity as well.
# (§2) Figure 1 Sensitivity to neutralization by alpha-defensins is AdV species specific. HAdVs were incubated with 15 µM HD5 (A) or HNP1 (B) and assessed for infectivity on A549 cells. Data are the mean of the percent infectivity compared to control cells infected with each virus in the absence of defensin for at least three independent experiments ± SD. The upper limit for quantification of this assay is 200%. […]
# (§3) Prior to use in this assay, each virus stock was titrated on A549 cells. […] In parallel, wells were infected with two-fold serial dilutions of each virus to establish a standard curve for quantification with an upper limit of 200%. […] Total well fluorescence above background was quantified with ImageJ software. For each virus, samples were quantified by nonlinear regression against the standard curve using Prism software (GraphPad Software, Inc., La Jolla, CA).
# HAdV-16 = assay: Infection assay (hexon staining), HAdV-16; type: cell-based, human adenovirus; conditions: 15 µM HNP1, A549 cells, vs. no defensin
# Protocol: as §1, §2, §3
# HAdV-12 = assay: Infection assay (hexon staining), HAdV-12; type: cell-based, human adenovirus; conditions: 15 µM HNP1, A549 cells, vs. no defensin
# Protocol: as §1, §2, §3
# HAdV-14 = assay: Infection assay (hexon staining), HAdV-14; type: cell-based, human adenovirus; conditions: 15 µM HNP1, A549 cells, vs. no defensin
# Protocol: as §1, §2, §3
# HAdV-4 (species E) = assay: Infection assay (hexon staining), HAdV-4; type: cell-based, human adenovirus; conditions: 15 µM HD5 or HNP1, A549 cells, hexon staining at ~48 h, vs. no defensin
# Protocol: as §1, §2, §3
# HAdV-3 = assay: Infection assay (hexon staining), HAdV-3; type: cell-based, human adenovirus; conditions: 15 µM HNP1, A549 cells, vs. no defensin
# Protocol: as §1, §2, §3
# HAdV-5 = conditions: low micromolar concentrations; ref [13]; cited from earlier work
substance,measurement,setting,value
"HNP1: human alpha-defensin; synthetic, obtained from Peptides International",sensitivity to neutralization (infectivity),[1],generally sensitive
same,inhibition of infection,HAdV-16,only modest inhibition
same,inhibition of infection,HAdV-12,only modest inhibition
same,inhibition of infection,HAdV-14,only modest inhibition
same,sensitivity to neutralization (infectivity),HAdV-4 (species E),resistant
same,inhibition of infection,HAdV-3,only modest inhibition
same,inhibition of HAdV-5 infection,HAdV-5,significantly inhibit HAdV-5 infection at low micromolar concentrations
